Measured values: patent US8349880B2, “Bicyclic compounds for the reduction of beta-amyloid production” (Bristol-Myers Squibb Company, priority 2009, dated 2013)
Where two headings read alike, the source gives them in different places.

Tested on: Aβ1-42 production
Assay: Cellular assay for inhibition of Aβ1-42 production (H4 APP751 SWE clone 8.20)
Type: cell-based
Conditions: 19 h, H4 APP751 SWE clone 8.20 cells, 19 h incubation
Outline: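 Aβ42 level read with antibodies 565, against the Aβ42 neoepitope, and N-terminal 26D6, incubated overnight at 4° C, after exposure of H4 APP751 SWE clone 8.20 cells to compound for 19 h at 37° C. Medium was DMEM plus 0.0125% BSA, 1.5×10^4 cells/well. IC50 values come from curve fitting.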

[1] = read-out: Activity Rating (based on Aβ42 cellular IC50 values)
[2] = read-out: Activity Rating (Aβ42 cellular IC50, given as a number)

Row | IC50 [1] | IC50 [2] | Structure (SMILES)
1 | 0.01 to 0.1 µM | – | Cc1ncn(-c2ccc(Nc3nc4n(n3)CCCC4c3ccc(OC(F)(F)F)cc3)cc2F)n1 (stereo not drawn) [Example 122, N-(3-fluoro-4-(3-methyl-1H-1,2,4-triazol-1-yl)phenyl)-8-(4-(trifluoromethoxy)phenyl)-5,6,7,8-tetrahydro-[1,2,4]triazolo[1,5-a]pyridin-2-amine 2,2,2-trifluoroacetate]
2 | 0.01 to 0.1 µM | – | COc1cc(Nc2nc3n(n2)CCCCC3c2ccc(OC(F)F)cc2)ccc1-n1cnc(C)n1 (stereo not drawn) [Example 127, 9-(4-(difluoromethoxy)phenyl)-N-(3-methoxy-4-(3-methyl-1H-1,2,4-triazol-1-yl)phenyl)-6,7,8,9-tetrahydro-5H-[1,2,4]triazolo[1,5-a]azepin-2-amine 2,2,2-trifluoroacetate]
3 | 0.01 to 0.1 µM | – | COc1cc(Nc2nc3n(n2)CCCCC3c2ccc(OC(F)(F)F)c(F)c2)ccc1-n1cnc(C)n1 (stereo not drawn) [Example 128, 9-(3-fluoro-4-(trifluoromethoxy)phenyl)-N-(3-methoxy-4-(3-methyl-1H-1,2,4-triazol-1-yl)phenyl)-6,7,8,9-tetrahydro-5H-[1,2,4]triazolo[1,5-a]azepin-2-amine 2,2,2-trifluoroacetate]
4 | – | 1 µM | COc1cc(Nc2nc3n(n2)CCCCC3c2ccc(S(C)(=O)=O)cc2)ccc1-n1cnc(C)n1 (stereo not drawn) [Example 129, N-(3-methoxy-4-(3-methyl-1H-1,2,4-triazol-1-yl)phenyl)-9-(4-(methylsulfonyl)phenyl)-6,7,8,9-tetrahydro-5H-[1,2,4]-triazolo[1,5-a]azepin-2-amine 2,2,2-trifluoroacetate]
5 | 0.01 to 0.1 µM | – | COc1cc(Nc2nc3n(n2)CCCCC3c2ccc(S(=O)(=O)C(F)(F)F)cc2)ccc1-n1cnc(C)n1 (stereo not drawn) [Example 130, N-(3-methoxy-4-(3-methyl-1H-1,2,4-triazol-1-yl)phenyl)-9-(4-(trifluoromethylsulfonyl)phenyl)-6,7,8,9-tetrahydro-5H-[1,2,4]triazolo[1,5-a]azepin-2-amine 2,2,2-trifluoroacetate]
6 | 0.01 to 0.1 µM | – | CCOc1ccc(C2CCCCn3nc(Nc4ccc(-n5cnc(Cl)c5)c(OC)c4)nc32)cc1 (stereo not drawn) [Example 131, N-(4-(4-chloro-1H-imidazol-1-yl)-3-methoxyphenyl)-9-(4-ethoxyphenyl)-6,7,8,9-tetrahydro-5H-[1,2,4]triazolo[1,5-a]azepin-2-amine 2,2,2-trifluoroacetate]
7 | 0.01 to 0.1 µM | – | CCOc1ccc(C2CCCCn3nc(Nc4ccc(-n5cnc(C)n5)c(OC)c4)nc32)cc1 (stereo not drawn) [Example 132, 9-(4-ethoxyphenyl)-N-(3-methoxy-4-(3-methyl-1H-1,2,4-triazol-1-yl)phenyl)-6,7,8,9-tetrahydro-5H-[1,2,4]triazolo[1,5-a]azepin-2-amine 2,2,2-trifluoroacetate]
8 | 0.01 to 0.1 µM | – | C=C1CCn2nc(Nc3ccc(-n4cnc(Cl)c4)c(OC)c3)nc2C(c2ccc(F)cc2)C1 (stereo not drawn) [Example 133, N-(4-(4-chloro-1H-imidazol-1-yl)-3-methoxyphenyl)-9-(4-fluorophenyl)-7-methylene-6,7,8,9-tetrahydro-5H-[1,2,4]triazolo[1,5-a]azepin-2-amine 2,2,2-trifluoroacetate]
9 | < 0.01 µM | – | COc1cc(Nc2nc3n(n2)CCC(C)CC3c2ccc(F)cc2)ccc1-n1cnc(Cl)c1 (stereo not drawn) [Example 136, N-(4-(4-chloro-1H-imidazol-1-yl)-3-methoxyphenyl)-9-(4-fluorophenyl)-7-methyl-6,7,8,9-tetrahydro-5H-[1,2,4]triazolo[1,5-a]azepin-2-amine]
10 | < 0.01 µM | – | COc1cc(Nc2nc3n(n2)CCC(=O)CC3c2ccc(F)cc2)ccc1-n1cnc(Cl)c1 (stereo not drawn) [Example 137, 2-(4-(4-chloro-1H-imidazol-1-yl)-3-methoxyphenylamino)-9-(4-fluorophenyl)-8,9-dihydro-5H-[1,2,4]triazolo[1,5-a]azepin-7(6H)-one 2,2,2-trifluoroacetate]
11 | 0.01 to 0.1 µM | – | CO/N=C1/CCn2nc(Nc3ccc(-n4cnc(Cl)c4)c(OC)c3)nc2C(c2ccc(F)cc2)C1 (stereo not drawn) [Example 138, (E)-2-(4-(4-chloro-1H-imidazol-1-yl)-3-methoxyphenylamino)-9-(4-fluorophenyl)-8,9-dihydro-5H-[1,2,4]triazolo[1,5-a]azepin-7(6H)-one O-methyl oxime 2,2,2-trifluoroacetate]
12 | 0.01 to 0.1 µM | – | COc1cc(Nc2nc3n(n2)CCC(F)(F)CC3c2ccc(F)cc2)ccc1-n1cnc(Cl)c1 (stereo not drawn) [Example 139, N-(4-(4-chloro-1H-imidazol-1-yl)-3-methoxyphenyl)-7,7-difluoro-9-(4-fluorophenyl)-6,7,8,9-tetrahydro-5H-[1,2,4]triazolo[1,5-a]azepin-2-amine 2,2,2-trifluoroacetate]
13 | 0.01 to 0.1 µM | – | CNC1CCn2nc(Nc3ccc(-n4cnc(Cl)c4)c(OC)c3)nc2C(c2ccc(F)cc2)C1 (stereo not drawn) [Example 140, N2-(4-(4-chloro-1H-imidazol-1-yl)-3-methoxyphenyl)-9-(4-fluorophenyl)-N-7-methyl-6,7,8,9-tetrahydro-5H-[1,2,4]triazolo[1,5-a]azepine-2,7-diamine 2,2,2-trifluoroacetate]
14 | – | 0.07 µM | COc1cc(Nc2nc3n(n2)CCC(N(C)C)CC3c2ccc(F)cc2)ccc1-n1cnc(Cl)c1 (stereo not drawn) [Example 141, N2-(4-(4-chloro-1H-imidazol-1-yl)-3-methoxyphenyl)-9-(4-fluorophenyl)-N7,N7-dimethyl-6,7,8,9-tetrahydro-5H-[1,2,4]triazolo[1,5-a]azepine-2,7-diamine]
15 | 0.01 to 0.1 µM | – | COc1cc(Nc2nc3n(n2)CCC(N2CCC2)CC3c2ccc(F)cc2)ccc1-n1cnc(Cl)c1 (stereo not drawn) [Example 142, 7-(azetidin-1-yl)-N-(4-(4-chloro-1H-imidazol-1-yl)-3-methoxyphenyl)-9-(4-fluorophenyl)-6,7,8,9-tetrahydro-5H-[1,2,4]triazolo[1,5-a]azepin-2-amine]
16 | 0.01 to 0.1 µM | – | COc1cc(Nc2nc3n(n2)CCC(N2CCCC2)CC3c2ccc(F)cc2)ccc1-n1cnc(Cl)c1 (stereo not drawn) [Example 143, N-(4-(4-chloro-1H-imidazol-1-yl)-3-methoxyphenyl)-9-(4-fluorophenyl)-7-(pyrrolidin-1-yl)-6,7,8,9-tetrahydro-5H-[1,2,4]triazolo[1,5-a]azepin-2-amine]
17 | < 0.01 µM | – | COc1cc(Nc2nc3n(n2)CCC2(CC3c3ccc(F)cc3)OCCO2)ccc1-n1cnc(Cl)c1 (stereo not drawn) [Example 144, N-(4-(4-chloro-1H-imidazol-1-yl)-3-methoxyphenyl)-9-(4-fluorophenyl)-5,6,8,9-tetrahydrospiro[[1,2,4]triazolo[1,5-a]azepine-7,2′-[1,3]dioxolan]-2-amine 2,2,2-trifluoroacetate]
18 | < 0.01 µM | – | COc1cc(Nc2nc3n(n2)CCC(OC)(OC)CC3c2ccc(F)cc2)ccc1-n1cnc(Cl)c1 (stereo not drawn) [Example 145, N-(4-(4-chloro-1H-imidazol-1-yl)-3-methoxyphenyl)-9-(4-fluorophenyl)-7,7-dimethoxy-6,7,8,9-tetrahydro-5H-[1,2,4]triazolo[1,5-a]azepin-2-amine]
19 | < 0.01 µM | – | CCC1(O)CCn2nc(Nc3ccc(-n4cnc(Cl)c4)c(OC)c3)nc2C(c2ccc(F)cc2)C1 (stereo not drawn) [Example 146, 2-(4-(4-chloro-1H-imidazol-1-yl)-3-methoxyphenylamino)-7-ethyl-9-(4-fluorophenyl)-6,7,8,9-tetrahydro-5H-[1,2,4]triazolo[1,5-a]azepin-7-ol]
20 | – | 0.016 µM | Cc1ncn(-c2ccc(Nc3nc4n(n3)CCC3(CC4c4ccc(F)cc4)OCCO3)cc2F)n1 (stereo not drawn) [Example 158, N-(3-fluoro-4-(3-methyl-1H-1,2,4-triazol-1-yl)phenyl)-9-(4-fluorophenyl)-5,6,8,9-tetrahydrospiro[[1,2,4]triazolo[1,5-a]azepine-7,2′-[1,3]dioxolan]-2-amine 2,2,2-trifluoroacetate]
21 | < 0.01 µM | – | COc1cc(Nc2nc3n(n2)CCCCC3c2ccccc2)ccc1-n1cnc(Cl)c1 (stereo not drawn) [Example 159, 2,2,2-trifluoroacetate]
22 | < 0.01 µM | – | Cc1ncnn1-c1ccc(Nc2nc3n(n2)CCCCC3c2ccc(OC(F)(F)F)c(F)c2)cc1F (stereo not drawn) [Example 160, N-(3-fluoro-4-(5-methyl-1H-1,2,4-triazol-1-yl)phenyl)-9-(3-fluoro-4-(trifluoromethoxy)phenyl)-6,7,8,9-tetrahydro-5H-[1,2,4]triazolo[1,5-a]azepin-2-amine]
23 | 0.01 to 0.1 µM | – | COc1cc(Nc2nc3n(n2)CCCCC3c2ccc(OCC(F)F)cc2)ccc1-n1cnc(Cl)c1 (stereo not drawn) [Example 161, N-(4-(4-chloro-1H-imidazol-1-yl)-3-methoxyphenyl)-9-(4-(2,2-difluoroethoxy)phenyl)-6,7,8,9-tetrahydro-5H-[1,2,4]triazolo[1,5-a]azepin-2-amine]
24 | < 0.01 µM | – | Cc1ncn(-c2ccc(Nc3nc4n(n3)CCCCC4c3ccc(OC(F)(F)F)c(F)c3)cc2F)n1 (stereo not drawn) [Example 164, N-(3-fluoro-4-(3-methyl-1H-1,2,4-triazol-1-yl)phenyl)-9-(3-fluoro-4-(trifluoromethoxy)phenyl)-6,7,8,9-tetrahydro-5H-[1,2,4]triazolo[1,5-a]azepin-2-amine]
25 | – | 0.044 µM | COc1cc(Nc2nc3n(n2)CCCCC3c2ccc(OC(F)(F)F)cc2)cc(F)c1-n1cnc(C)n1 (stereo not drawn) [Example 167, N-(3-fluoro-5-methoxy-4-(3-methyl-1H-1,2,4-triazol-1-yl)phenyl)-9-(4-(trifluoromethoxy)phenyl)-6,7,8,9-tetrahydro-5H-[1,2,4]triazolo[1,5-a]azepin-2-amine]
26 | < 0.01 µM | – | COc1cc(Nc2nc3n(n2)CCCCC3c2ccc(Br)cc2)ccc1-n1cnc(Cl)c1 (stereo not drawn) [Example 170, 9-(4-bromophenyl)-N-(4-(4-chloro-1H-imidazol-1-yl)-3-methoxyphenyl)-6,7,8,9-tetrahydro-5H-[1,2,4]triazolo[1,5-a]azepin-2-amine]
27 | 0.01 to 0.1 µM | – | COc1cc(Nc2nc3n(n2)CCCCC3c2ccc(-n3cccn3)cc2)ccc1-n1cnc(Cl)c1 (stereo not drawn) [Example 171, 9-(4-(1H-pyrazol-1-yl)phenyl)-N-(4-(4-chloro-1H-imidazol-1-yl)-3-methoxyphenyl)-6,7,8,9-tetrahydro-5H-[1,2,4]triazolo[1,5-a]azepin-2-amine 2,2,2-trifluoroacetate]
